Assay [1] concerns the target T1, CDK8 (Homo sapiens, UniProt P49336). The experiment in a line: TR-FRET ligand displacement assay (Kinase Tracer […], Tb-anti-GST). Also noted: GST-CDK8; with Cyclin C. Format: binding. Background: In TR-FRET formats the signal depends on donor and acceptor labels being close together.
The target in assay [2] is T2, HASPIN (Homo sapiens, UniProt Q8TF76). Nature of the assay: biochemical. Also noted: KINOMEscan active site-directed competition binding assay (DiscoveRx), 456 kinases, per cent of control at 300 nM. The conditions noted are these: sheet T-418; read-out: Percent of Control (%). Summed up: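 Compounds at 300 nmol/L screened against 456 kinases by KINOMEscan, a competition binding assay measuring displacement at the kinase active site.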
T2 sequence (Q8TF76 whole entry): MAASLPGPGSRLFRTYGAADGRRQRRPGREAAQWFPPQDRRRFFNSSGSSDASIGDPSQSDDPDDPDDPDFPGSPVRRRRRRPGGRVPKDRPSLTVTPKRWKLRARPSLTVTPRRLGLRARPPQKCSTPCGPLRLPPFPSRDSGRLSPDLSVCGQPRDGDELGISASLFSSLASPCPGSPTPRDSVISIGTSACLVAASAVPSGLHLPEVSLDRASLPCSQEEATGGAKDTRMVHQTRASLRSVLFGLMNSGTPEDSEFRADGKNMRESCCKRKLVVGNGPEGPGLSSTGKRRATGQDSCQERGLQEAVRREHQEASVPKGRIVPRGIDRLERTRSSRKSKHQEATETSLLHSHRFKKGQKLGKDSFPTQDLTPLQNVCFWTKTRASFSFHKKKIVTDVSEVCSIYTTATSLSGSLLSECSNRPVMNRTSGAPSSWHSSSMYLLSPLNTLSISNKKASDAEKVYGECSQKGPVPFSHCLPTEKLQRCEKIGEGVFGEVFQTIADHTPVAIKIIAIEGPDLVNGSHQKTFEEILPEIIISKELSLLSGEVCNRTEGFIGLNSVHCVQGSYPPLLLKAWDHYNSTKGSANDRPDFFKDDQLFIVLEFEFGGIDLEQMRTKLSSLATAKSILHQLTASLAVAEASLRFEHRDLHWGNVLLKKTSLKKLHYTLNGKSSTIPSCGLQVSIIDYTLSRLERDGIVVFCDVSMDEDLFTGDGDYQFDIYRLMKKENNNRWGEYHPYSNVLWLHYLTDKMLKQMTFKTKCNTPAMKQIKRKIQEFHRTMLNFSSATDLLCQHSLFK

The next assay has as its target T3, CDK19 (Homo sapiens, UniProt Q9BWU1).
T3 construct: GST-CDK19; with Cyclin C
The experiment in a line: TR-FRET ligand displacement assay (Kinase Tracer […], Tb-anti-GST); also KINOMEscan […] inhibition at […]. Format: binding.

For assay [3], the target named is T2, HASPIN. Nature of the assay: KINOMEscan competition binding at a single concentration ([…]). The conditions noted are these: read-out: % inhibition at 300 nM.
Assay [4] concerns the target T1, CDK8. Nature of the assay: TR-FRET ligand displacement assay (Kinase Tracer […], Tb-anti-GST); also KINOMEscan […] inhibition at […]. Type of assay: binding. Also noted: GST-CDK8; with Cyclin C.

T1 sequence (P49336 whole entry): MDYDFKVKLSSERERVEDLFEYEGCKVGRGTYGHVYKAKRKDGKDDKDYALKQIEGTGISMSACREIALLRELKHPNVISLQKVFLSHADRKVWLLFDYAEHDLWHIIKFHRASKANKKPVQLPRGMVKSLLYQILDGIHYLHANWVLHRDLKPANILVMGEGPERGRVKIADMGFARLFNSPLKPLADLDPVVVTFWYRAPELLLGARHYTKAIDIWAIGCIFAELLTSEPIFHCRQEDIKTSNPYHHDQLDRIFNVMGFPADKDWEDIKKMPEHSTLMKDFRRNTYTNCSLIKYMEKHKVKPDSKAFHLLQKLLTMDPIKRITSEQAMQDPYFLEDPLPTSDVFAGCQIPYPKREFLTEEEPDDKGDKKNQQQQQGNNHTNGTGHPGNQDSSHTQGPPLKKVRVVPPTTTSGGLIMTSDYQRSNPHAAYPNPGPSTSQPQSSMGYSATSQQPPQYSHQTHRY
T1 sequence (P24863 whole entry partner): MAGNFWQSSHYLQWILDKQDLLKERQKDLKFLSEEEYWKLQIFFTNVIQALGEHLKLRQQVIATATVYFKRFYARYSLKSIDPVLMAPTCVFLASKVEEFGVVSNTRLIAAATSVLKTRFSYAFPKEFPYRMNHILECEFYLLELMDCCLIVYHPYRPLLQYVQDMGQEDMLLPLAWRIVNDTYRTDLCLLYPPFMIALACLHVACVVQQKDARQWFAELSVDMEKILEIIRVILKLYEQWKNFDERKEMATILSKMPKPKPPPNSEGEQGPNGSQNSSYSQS
T3 sequence (Q9BWU1 whole entry): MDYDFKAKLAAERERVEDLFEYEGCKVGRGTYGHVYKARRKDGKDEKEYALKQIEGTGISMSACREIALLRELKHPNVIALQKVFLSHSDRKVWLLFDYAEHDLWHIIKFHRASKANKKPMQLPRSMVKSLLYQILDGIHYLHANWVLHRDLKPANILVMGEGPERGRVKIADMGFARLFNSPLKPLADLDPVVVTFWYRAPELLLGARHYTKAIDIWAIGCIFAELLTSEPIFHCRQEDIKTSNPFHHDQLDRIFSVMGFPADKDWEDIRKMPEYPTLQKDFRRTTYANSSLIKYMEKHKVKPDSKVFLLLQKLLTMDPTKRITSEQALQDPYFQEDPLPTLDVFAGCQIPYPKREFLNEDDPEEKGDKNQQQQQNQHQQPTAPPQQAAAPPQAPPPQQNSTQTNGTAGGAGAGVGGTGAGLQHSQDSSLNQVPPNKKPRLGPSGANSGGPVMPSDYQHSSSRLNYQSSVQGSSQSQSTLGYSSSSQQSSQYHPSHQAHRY
T3 sequence (P24863 whole entry partner): as the sequence (P24863 whole entry partner) above

Turning to `O=C(/C=C/c1cnccc1-c1ccc(F)cc1)Nc1ccc(CCc2nnco2)cc1` [T-418, (2E)-3-(4-(4-fluorophenyl)pyridin-3-yl)-N-(4-(2-(1,3,4-oxadiazol-2-yl)ethyl)phenyl)acrylamide], the IC50 (as a rule, the concentration needed to halve the response being measured) stood at 23 nM on CDK8 [1] and 62 nM at CDK19. Further, the remaining binding at 0.3 µM at HASPIN [2] was found to be 90%.

As for `Cc1ncccc1Oc1sc(C(N)=O)c2c1-c1c(cnn1C)CC2` [T-474, 1-methyl-8-((2-methylpyridin-3-yl)oxy)-4,5-dihydro-1H-thieno[3,4-g]indazole-6-carboxamide], the inhibition (as a rule, the relative decrease from the control value, in per cent) at 0.3 µM at HASPIN [3] is 99%. The IC50 on CDK8 [4] is 1.6 nM.
